Test results: patent US20150031743A1, “CELL TRANSFECTING FORMULATIONS OF SMALL INTERFERING RNA, RELATED COMPOSITIONS AND METHODS OF MAKING AND USE” (NOVARTIS VACCINES AND DIAGNOSTICS, INC., priority 2003, published 2015)

Columns and labels:
Akt1 mRNA = experiment: siRNA inhibition of Akt1 mRNA in MDA435 breast cancer cells (Example 1, FIG. 2); type: cell-based; settings: presence or absence of serum, Akt1 message normalized to average of HPRT and GUSB
Procedure: (§1) For each transfection mixture (which are examples of compositions in accordance with the present invention), a lipitoid or lipitoid/cholesteroid combination delivery vehicle was prepared to a working concentration of 0.5 mM in water and mixed to yield a uniform solution. The siRNA was prepared to a working concentration of 20 μM in buffer supplied with the siRNAs. In this example, the siRNAs were for Akt1 mRNA and had the sequence […] (SEQ ID No: 1) with two 2′ O-methyl UU (RNA) nucleotide 3′-overhangs and phosphodiester links throughout (available from Integrated DNA Technologies). The siRNA was diluted in OptiMEM™ (Gibco/BRL), in a microfuge tube, to 1 μM, or approximately 15 μg oligo/ml of OptiMEM™. In a separate microfuge tube, vehicle, typically in the amount of about 3.75 nmol vehicle/100 pmol siRNA, was diluted into the same volume of OptiMEM™ used to dilute the siRNA. […] Note that the exact ratio of siRNA to vehicle must be determined empirically for each cell type, but generally is about this amount. The diluted siRNA was immediately added to the diluted vehicle and mixed by pipetting up and down. The mixture was allowed to incubate at room temperature for 10 minutes.
Cells were plated on tissue culture dishes one day in advance of transfection, in growth media with serum, to yield a density at transfection of 60-90%. […]

firefly luciferase = experiment: Loss of luciferase activity after siRNA transfection, Promega Dual-Luciferase Reporter Assay (Example 2, FIG. 3); type: cell-based; settings: MDA231 stably expressing luciferase, control non-transfected cell line
Procedure: as §1
Cells were plated on tissue culture dishes one day in advance of transfection, in growth media with serum, to yield a density at transfection of 60-90%. The siRNA/vehicle mixture was added to the cells immediately after mixing and incubation, to a final concentration of 50-100 nM siRNA in half the normal growth medium volume. Cells were incubated with the transfection mixture at 37° C., 5% CO2 for 4-24 hours. […]
Transfection mixtures were prepared using siRNA against firefly luciferase (CGUACGCGGAAUACUUCGA (SEQ ID No: 2); from Elbashir et al., Nature, 411, 494 (2001)) and several different delivery vehicles in accordance with the present invention as described herein (L1, L2, L1/C1, L4 1L1/3C1) substantially as described in Example 1. Luciferase activity was quantified with the Promega Dual-Luciferase Reporter Assay System according to package directions. […]

luciferase activity after transfection of siRNA against luciferase (firefly luciferase) | Substance | Akt1 expression after transfection of siRNA directed against Akt1 mRNA (Akt1 mRNA)
– | NtdNhd(NaeNmpeNmpe)3 [Lipitoid L3] | loss of Akt1 expression
substantially reduced | DMPE(NaeNmpeNmpe)3 [Lipitoid L1] | –
substantially reduced | DMPE(NaeNiaNia)3 [Lipitoid L2] | loss of Akt1 expression
substantially reduced | NddNol(NaeNmpeNmpe)3 [Lipitoid L4] | –
